Source: US8748624B2, “Picolinamido-propanoic acid derivatives useful as glucagon receptor antagonists” (Janssen Pharmaceutica NV, priority 2011, dated 2014)

Tests used:
[1] = molecular target: human glucagon receptor (GCGR) (Homo sapiens (Human), UniProt P47871); experiment: Inhibition of 125I-glucagon binding to membranes from HEK293 cells expressing the human glucagon receptor; details: membranes of hGluc-1 HEK cells, 125I-glucagon 0.3 nM
Procedure, shortened: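 Filtration binding assay on membranes from HEK293 cells stably expressing full-length human GCGR, 6 μg protein/well, with 0.3 nM ¹²⁵I-glucagon plus compound, 2 h at room temperature. Buffer: 50 mM HEPES pH 7.4, 5 mM MgCl2, 1 mM CaCl2, 0.2% BSA. IC50 by non-linear regression, converted to Ki.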

[2] = molecular target: human GCGR (Homo sapiens (Human), UniProt P47871); experiment: Cellular functional assay, cAMP readout (glucagon-stimulated cAMP in HEK293 cells expressing human GCGR); format: cell-based; details: hGluc-1 HEK cells
human GCGR, sequence (P47871 26-477): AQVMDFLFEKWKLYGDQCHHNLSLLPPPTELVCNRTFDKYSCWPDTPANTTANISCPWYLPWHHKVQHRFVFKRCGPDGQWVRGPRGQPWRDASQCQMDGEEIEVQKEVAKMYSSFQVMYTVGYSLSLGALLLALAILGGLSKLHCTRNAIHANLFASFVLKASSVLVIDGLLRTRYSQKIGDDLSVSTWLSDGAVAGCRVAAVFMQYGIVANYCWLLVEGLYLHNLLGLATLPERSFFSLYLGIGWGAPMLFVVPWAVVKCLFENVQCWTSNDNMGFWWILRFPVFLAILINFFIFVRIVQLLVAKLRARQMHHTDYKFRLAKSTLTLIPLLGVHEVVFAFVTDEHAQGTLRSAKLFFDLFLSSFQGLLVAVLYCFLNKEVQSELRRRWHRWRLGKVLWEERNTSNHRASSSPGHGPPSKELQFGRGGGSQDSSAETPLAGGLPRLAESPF
Procedure, shortened: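 HEK293 cells stably transfected with full-length human GCGR were exposed to compound for 30 min before a 5-min challenge with […] (final) glucagon. Readout was TR-FRET (LANCE) cAMP versus standard curve; IC50s fitted by non-linear regression and converted to Ki values.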

[3] = 2 hours room temperature, IC50 converted to Ki, average if tested more than once
[4] = LANCE TR-FRET, IC50 converted to Ki, average if tested more than once
[5] = meta-substituted comparative compounds (Table 3)

human glucagon receptor (GCGR), sequence (P47871 26-477): as above

SMILES | Ki [1, 3] [nM] | Ki [2, 4] [nM] | Ki [1, 5] [nM] | Ki [2, 5] [nM]
Cc1cc(NCc2c(Cl)cc(C(F)(F)F)cc2-c2ccc(C(=O)NCCC(=O)O)nc2)ccc1-c1ccc(Cl)cc1 [Compound 75, 3-(5-(3-chloro-2-(((4′-chloro-2-methyl-[1,1′-biphenyl]-4-yl)amino)methyl)-5-(trifluoromethyl)phenyl)picolinamido)propanoic acid] | 27.8 | 6.7 | – | –
O=C(O)CCNC(=O)c1ccc(-c2cc(F)c(F)cc2CNc2ccc(-c3ccc(Cl)cc3Cl)cc2)cn1 [Compound 118, 3-(5-(2-(((2′,4′-dichloro-[1,1′-biphenyl]-4-yl)amino)methyl)-4,5-difluorophenyl)picolinamido)propanoic acid] | 67.8 | 120 | – | –
O=C(O)CCNC(=O)c1ccc(-c2cc(Cl)ccc2CNc2ccc(-c3ccc(Cl)c(F)c3)c(F)c2)cn1 [Compound 93, 3-(5-(5-chloro-2-(((4′-chloro-2,3′-difluoro-[1,1′-biphenyl]-4-yl)amino)methyl)phenyl)picolinamido)propanoic acid] | 53.4 | 295 | – | –
O=C(O)CCNC(=O)c1ccc(-c2cc(Cl)cc(CNc3ccc(-c4ccc(Cl)cc4Cl)cc3)c2)cn1 [Compound M4, 3-(5-(3-chloro-5-(((2′,4′-dichloro-[1,1′-biphenyl]-4-yl)amino)methyl)phenyl)picolinamido)propanoic acid, reference compound] | – | – | > 1350 | > 10400
O=C(O)CCNC(=O)c1ccc(-c2cc(Cl)cc(C(=O)Nc3ccc(-c4ccc(Cl)cc4)cc3)c2)cn1 [Compound M5, 3-(5-(3-chloro-5-((4′-chloro-[1,1′-biphenyl]-4-yl)carbamoyl)phenyl)picolinamido)propanoic acid, reference compound] | – | – | > 5400 | > 10400
Cc1ccc(-c2ccc(NCc3cc(F)c(F)cc3-c3ccc(C(=O)NCCC(=O)O)nc3)cc2C#N)c(F)c1 [Compound 112, 3-(5-(2-(((2-cyano-2′-fluoro-4′-methyl-[1,1′-biphenyl]-4-yl)amino)methyl)-4,5-difluorophenyl)picolinamido)propanoic acid] | 76.5 | 280 | – | –
O=C(O)CCNC(=O)c1ccc(-c2cc(Cl)ccc2CNc2ccc(-c3cc(F)cc(F)c3)cc2)cn1 [Compound 137, 3-(5-(5-chloro-2-(((3′,5′-difluoro-[1,1′-biphenyl]-4-yl)amino)methyl)phenyl)picolinamido)propanoic acid] | 61.1 | 425 | – | –
O=C(O)CCNC(=O)c1ccc(-c2cc(Cl)ccc2CNc2ccc(-c3ccc(Cl)cc3)c(F)c2)cn1 [Compound 91, 3-(5-(5-chloro-2-(((4′-chloro-2-fluoro-[1,1′-biphenyl]-4-yl)amino)methyl)phenyl)picolinamido)propanoic acid] | 33.4 | 295 | – | –
CC(C)(C)c1ccc(-c2ccc(NCc3ccc(Cl)cc3-c3ccc(C(=O)NCCC(=O)O)nc3)cc2)cc1 [Compound 59, 3-(5-(2-(((4′-(tert-butyl)-[1,1′-biphenyl]-4-yl)amino)methyl)-5-chlorophenyl)picolinamido)propanoic acid] | 72.4 | 320 | – | –
O=C(O)CCNC(=O)c1ccc(-c2cc(Cl)ccc2CNc2ccc(-c3ccccc3OC(F)(F)F)cc2)cn1 [Compound 132, 3-(5-(5-chloro-2-(((2′-(trifluoromethoxy)-[1,1′-biphenyl]-4-yl)amino)methyl)phenyl)picolinamido)propanoic acid] | 123 | 1930 | – | –
O=C(O)CCNC(=O)c1ccc(-c2cc(C3CCCCC3)ccc2CNc2ccc(-c3ccc(F)cc3)cc2)cn1 [Compound 175, 3-(5-(5-cyclohexyl-2-(((4′-fluoro-[1,1′-biphenyl]-4-yl)amino)methyl)phenyl)picolinamido)propanoic acid] | 24.2 | 45.8 | – | –
O=C(O)CCNC(=O)c1ccc(-c2cc(Cl)ccc2CNc2ccc(-c3ccc(Cl)cc3Cl)cc2)cn1 [Compound 7, 3-(5-(5-chloro-2-(((2′,4′-dichloro-[1,1′-biphenyl]-4-yl)amino)methyl)phenyl)picolinamido)propanoic acid] | 22.4 | 44.8 | – | –
Cc1cc(F)ccc1-c1ccc(NCc2ccc(Cl)cc2-c2ccc(C(=O)NCCC(=O)O)nc2)cc1 [Compound 151, 3-(5-(5-chloro-2-(((4′-fluoro-2′-methyl-[1,1′-biphenyl]-4-yl)amino)methyl)phenyl)picolinamido)propanoic acid] | 16.5 | 113 | – | –
O=C(O)CCNC(=O)c1ccc(-c2cc(Cl)ccc2CNc2ccc(-c3ccc(Cl)c(C(F)(F)F)c3)c(Cl)c2)cn1 [Compound 169, 3-(5-(5-chloro-2-(((2,4′-dichloro-3′-(trifluoromethyl)-[1,1′-biphenyl]-4-yl)amino)methyl)phenyl)picolinamido)propanoic acid] | 39 | 142 | – | –
O=C(O)CCNC(=O)c1ccc(-c2cc(Cl)ccc2CNc2ccc(-c3ccc(C(F)(F)F)cc3Cl)cc2)cn1 [Compound 147, 3-(5-(5-chloro-2-(((2′-chloro-4′-(trifluoromethyl)-[1,1′-biphenyl]-4-yl)amino)methyl)phenyl)picolinamido)propanoic acid] | 15.7 | 60 | – | –
Cc1ccc(-c2ccc(NCc3ccc(Cl)cc3-c3ccc(C(=O)NCCC(=O)O)nc3)cc2Cl)cc1 [Compound 172, 3-(5-(5-chloro-2-(((2-chloro-4′-methyl-[1,1′-biphenyl]-4-yl)amino)methyl)phenyl)picolinamido)propanoic acid] | 26.9 | 69.2 | – | –
N#Cc1cc(NCc2cc(F)c(F)cc2-c2ccc(C(=O)NCCC(=O)O)nc2)ccc1-c1ccc(F)c(C(F)(F)F)c1 [Compound 109, 3-(5-(2-(((2-cyano-4′-fluoro-3′-(trifluoromethyl)-[1,1′-biphenyl]-4-yl)amino)methyl)-4,5-difluorophenyl)picolinamido)propanoic acid] | 30.4 | 115 | – | –
CC(C)c1ccc(CNc2ccc(-c3ccc(F)cc3)cc2)c(-c2ccc(C(=O)NCCC(=O)O)nc2)c1 [Compound 158, 3-(5-(2-(((4′-fluoro-[1,1′-biphenyl]-4-yl)amino)methyl)-5-isopropylphenyl)picolinamido)propanoic acid] | 20 | 125 | – | –
O=C(O)CCNC(=O)c1ccc(-c2cc(C3=CCCCC3)ccc2CNc2ccc(-c3ccc(Cl)cc3Cl)cc2)cn1 [Compound 176, 3-(5-(4-(((2′,4′-dichloro-[1,1′-biphenyl]-4-yl)amino)methyl)-2′,3′,4′,5′-tetrahydro-[1,1′-biphenyl]-3-yl)picolinamido)propanoic acid] | 40 | 160 | – | –
O=C(O)CCNC(=O)c1ccc(-c2cc(C(F)(F)F)cc(Cl)c2CNc2ccc(-c3ccc(Cl)cc3)cc2)cn1 [Compound 67, 3-(5-(3-chloro-2-(((4′-chloro-[1,1′-biphenyl]-4-yl)amino)methyl)-5-(trifluoromethyl)phenyl)picolinamido)propanoic acid] | 18.8 | 12.2 | – | –
COc1ccc(-c2ccc(C(=O)NCCC(=O)O)nc2)c(CNc2ccc(-c3ccc(Cl)cc3Cl)cc2)c1 [Compound 60, 3-(5-(2-(((2′,4′-dichloro-[1,1′-biphenyl]-4-yl)amino)methyl)-4-methoxyphenyl)picolinamido)propanoic acid] | 194 | 1370 | – | –
